The values that follow come from PubChem BioAssay AID248 (DTP/NCI, 2004).

The test system of the assay is L1210 leukemia ip in BDF1 mice, survival T/C. The assay is described as follows: NCI In Vivo Anticancer Drug Screen. Data for tumor model L1210 Leukemia (intraperitoneal) in B6D2F1 (BDF1) mice. The conditions noted are these: endpoint: mean survival time, higher = longer survival. In outline:
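Ratio derived from survival: compound-dosed mice over vehicle-dosed mice, all bearing a transplantable tumor.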

Setting [1] is: dose: 100.0 mg/kg/injection, schedule: Q01DX001 (ip), vehicle: saline.
Setting [2] is: dose: 200.0 mg/kg/injection, schedule: Q01DX001 (ip), vehicle: saline.
Setting [3] is: dose: 400.0 mg/kg/injection, schedule: Q01DX001 (ip), vehicle: saline.
The mark [4] stands for this setting: dose: 100.0 mg/kg/injection, schedule: Q01DX009 (ip), vehicle: saline with Tween-80.
[5] abbreviates: dose: 200.0 mg/kg/injection, schedule: Q01DX009 (ip), vehicle: saline with Tween-80.
The mark [6] stands for this setting: dose: 400.0 mg/kg/injection, schedule: Q01DX009 (ip), vehicle: saline with Tween-80.
Setting [7] is: dose: 100.0 mg/kg/injection, schedule: Q04DX003 (ip), vehicle: saline.
[8] abbreviates: dose: 200.0 mg/kg/injection, schedule: Q04DX003 (ip), vehicle: saline.
The mark [9] stands for this setting: dose: 25.0 mg/kg/injection, schedule: Q04DX003 (ip), vehicle: Klucel (hydroxypropylcellulose) (HPC).
The mark [10] stands for this setting: dose: 50.0 mg/kg/injection, schedule: Q04DX003 (ip), vehicle: Klucel (hydroxypropylcellulose) (HPC).
Where [11] appears, read: dose: 100.0 mg/kg/injection, schedule: Q04DX003 (ip), vehicle: Klucel (hydroxypropylcellulose) (HPC).
Where [12] appears, read: dose: 50.0 mg/kg/injection, schedule: Q01DX009 (ip), vehicle: saline with Tween-80.
The mark [13] stands for this setting: dose: 100.0 mg/kg/injection, schedule: Q04DX003 (ip), vehicle: saline with Tween-80.

Toxic doses and inconclusive results are not listed.

As to `CCOC(=O)c1ccc(CCCCl)cc1`, the T/C by setting is: (dose: 100.0 mg/kg/injection, schedule: Q01DX001 (ip), vehicle: Klucel (hydroxypropylcellulose) (HPC)) 98 % of control; (dose: 200.0 mg/kg/injection, schedule: Q01DX001 (ip), vehicle: Klucel (hydroxypropylcellulose) (HPC)) 88 % of control; (dose: 400.0 mg/kg/injection, schedule: Q01DX001 (ip), vehicle: Klucel (hydroxypropylcellulose) (HPC)) 91 % of control.
With `COC(=O)C1(C)COP(=O)(N2CC2)OC1` (configuration not stated), the T/C is 101 % of control under setting [1], 106 % of control under setting [2] and 95 % of control under setting [3].
In the case of `CC(C)=NNC(=O)c1ccc(Cl)cc1`, the T/C was 95 % of control under setting [4], 106 % of control under setting [5] and 116 % of control under setting [6].
For the compound `OCC1OC(OCC2OC(OC3(CO)OC(CO)C(O)C3O)C(O)C(O)C2O)C(O)C(O)C1O` (configuration not stated), the T/C is, setting by setting: under setting [7], 101 % of control; under setting [8], 106 % of control; (dose: 400.0 mg/kg/injection, schedule: Q04DX003 (ip), vehicle: saline) 104 % of control.
As to `NC(=O)c1ccc[n+](CCc2nc(N)c3[nH]cnc3n2)c1`, the T/C by setting is: (dose: 50.0 mg/kg/injection, schedule: Q04DX003 (ip), vehicle: saline) 97 % of control; under setting [7], 97 % of control; under setting [8], 103 % of control.
Consider `O=[N+]([O-])c1cc(Cl)cc(Cl)c1O`, for which the T/C was 91 % of control (dose: 12.5 mg/kg/injection, schedule: Q01DX009 (ip), vehicle: Klucel (hydroxypropylcellulose) (HPC)); 90 % of control (dose: 12.5 mg/kg/injection, schedule: Q04DX002 (ip), vehicle: Klucel (hydroxypropylcellulose) (HPC)); 94 % of control (dose: 25.0 mg/kg/injection, schedule: Q01DX009 (ip), vehicle: Klucel (hydroxypropylcellulose) (HPC)); 97 % of control (dose: 25.0 mg/kg/injection, schedule: Q04DX002 (ip), vehicle: Klucel (hydroxypropylcellulose) (HPC)); 94 % of control (dose: 50.0 mg/kg/injection, schedule: Q04DX002 (ip), vehicle: Klucel (hydroxypropylcellulose) (HPC)).
With `NC(=S)Nc1cccc(Cl)c1`, the T/C was 96 % of control under setting [9], 100 % of control under setting [10] and 106 % of control under setting [11].
In the case of `Clc1ccc(/C=N/c2snc3ccccc23)cc1Cl`, the T/C (dose: 100.0 mg/kg/injection, schedule: Q04DX002 (ip), vehicle: Klucel (hydroxypropylcellulose) (HPC)) was 92 % of control; the T/C (dose: 200.0 mg/kg/injection, schedule: Q04DX002 (ip), vehicle: Klucel (hydroxypropylcellulose) (HPC)) was 89 % of control; the T/C (dose: 400.0 mg/kg/injection, schedule: Q04DX002 (ip), vehicle: Klucel (hydroxypropylcellulose) (HPC)) was 86 % of control.
`CCC(C(C)C)C1NC1C(C)C1CCC2C3CC=C4CC(OC(C)=O)CCC4(C)C3CCC12C` (configuration not stated): the T/C (dose: 100.0 mg/kg/injection, schedule: Q04DX003 (sc), vehicle: steriod suspending solution) is 105 % of control; the T/C (dose: 200.0 mg/kg/injection, schedule: Q04DX003 (sc), vehicle: steriod suspending solution) was 103 % of control; the T/C (dose: 400.0 mg/kg/injection, schedule: Q04DX003 (sc), vehicle: steriod suspending solution) is 97 % of control.
With `O=NN(CCO)C(=O)Nc1c[nH]c(=O)[nH]c1=O`, the T/C was 118 % of control (dose: 12.5 mg/kg/injection, schedule: Q01DX001 (ip), vehicle: carboxymethylcellulose (CMC)); 118 % of control (dose: 25.0 mg/kg/injection, schedule: Q01DX001 (ip), vehicle: carboxymethylcellulose (CMC)); 122 % of control (dose: 50.0 mg/kg/injection, schedule: Q01DX001 (ip), vehicle: carboxymethylcellulose (CMC)); 190 % of control (dose: 400.0 mg/kg/injection, schedule: Q01DX001 (ip), vehicle: carboxymethylcellulose (CMC)).
With `CN(N)c1nc2c(N)ncnc2n1C1OC(CO)C(O)C1O` (configuration not stated), the T/C is 97 % of control (dose: 12.5 mg/kg/injection, schedule: Q01DX005 (ip), vehicle: saline); 108 % of control (dose: 25.0 mg/kg/injection, schedule: Q01DX005 (ip), vehicle: saline); 100 % of control (dose: 50.0 mg/kg/injection, schedule: Q01DX005 (ip), vehicle: saline).
`COc1ccc(/C=N/NC(=O)C[n+]2ccccc2)c(OC)c1`: the T/C by setting is: (dose: 25.0 mg/kg/injection, schedule: Q01DX009 (ip), vehicle: saline with Tween-80) 110 % of control; under setting [12], 101 % of control; under setting [4], 103 % of control; under setting [13], 94 % of control.
As to `CCOC(=O)C(CCc1cc2ccccc2[nH]1)(C(=O)OCC)N1C(=O)c2ccccc2C1=O`, the T/C runs as follows: (dose: 100.0 mg/kg/injection, schedule: Q01DX009 (ip), vehicle: Klucel (hydroxypropylcellulose) (HPC)) 94 % of control; (dose: 200.0 mg/kg/injection, schedule: Q01DX009 (ip), vehicle: Klucel (hydroxypropylcellulose) (HPC)) 89 % of control; (dose: 400.0 mg/kg/injection, schedule: Q01DX009 (ip), vehicle: Klucel (hydroxypropylcellulose) (HPC)) 89 % of control.
On to `O=C1CCC(Cc2ccccc2)N1` (configuration not stated), for which the T/C is, setting by setting: (dose: 100.0 mg/kg/injection, schedule: Q04DX002 (ip), vehicle: saline with Tween-80) 97 % of control; (dose: 200.0 mg/kg/injection, schedule: Q04DX002 (ip), vehicle: saline with Tween-80) 102 % of control; (dose: 400.0 mg/kg/injection, schedule: Q04DX002 (ip), vehicle: saline with Tween-80) 97 % of control.
For `Nc1[nH]nc2nc(-c3ccc(Cl)cc3)cnc12`, the T/C runs as follows: under setting [12], 104 % of control; under setting [4], 101 % of control; under setting [13], 95 % of control; under setting [5], 98 % of control; (dose: 200.0 mg/kg/injection, schedule: Q04DX003 (ip), vehicle: saline with Tween-80) 95 % of control.
Regarding `CCOC(=N)CCNS(=O)(=O)c1ccc(C)cc1`, the T/C runs as follows: under setting [1], 104 % of control; under setting [2], 98 % of control; under setting [3], 115 % of control.
Regarding `Cc1ccc(N=C=Nc2ccc(C)cc2)cc1`, the T/C runs as follows: under setting [9], 105 % of control; under setting [10], 97 % of control; under setting [11], 90 % of control.
Consider `COc1cc(CCNC(=O)Cc2ccc(OCc3ccccc3)c(OC)c2)ccc1OCc1ccccc1`, for which the T/C under setting [4] was 89 % of control, the T/C under setting [5] was 101 % of control and the T/C under setting [6] was 94 % of control.
As to `NC(=O)NN=C(CCl)CCl`, the T/C is 100 % of control (dose: 100.0 mg/kg/injection, schedule: Q04DX002 (ip), vehicle: saline) and 91 % of control (dose: 200.0 mg/kg/injection, schedule: Q04DX002 (ip), vehicle: saline).
With `CC(C)(C)c1ccc(S(=O)(=O)c2ccc(C(C)(C)C)cc2)cc1`, the T/C runs as follows: under setting [11], 94 % of control; (dose: 200.0 mg/kg/injection, schedule: Q04DX003 (ip), vehicle: Klucel (hydroxypropylcellulose) (HPC)) 105 % of control; (dose: 400.0 mg/kg/injection, schedule: Q04DX003 (ip), vehicle: Klucel (hydroxypropylcellulose) (HPC)) 91 % of control.
On to `O=C1c2cc(-c3ccccc3)c(-c3ccccc3)cc2C(c2ccccc2)(c2ccccc2)C1(Cl)Cl`, for which the T/C reads like this: under setting [12], 100 % of control; under setting [4], 100 % of control; under setting [5], 95 % of control.
For the compound `Nc1nc(N)c2nc(CNc3cccc4ccccc34)cnc2n1`, the T/C (dose: 10.0 mg/kg/injection, schedule: Q01DX009 (ip), vehicle: Klucel (hydroxypropylcellulose) (HPC)) is 102 % of control; the T/C (dose: 20.0 mg/kg/injection, schedule: Q01DX009 (ip), vehicle: Klucel (hydroxypropylcellulose) (HPC)) is 102 % of control; the T/C (dose: 40.0 mg/kg/injection, schedule: Q01DX009 (ip), vehicle: Klucel (hydroxypropylcellulose) (HPC)) is 100 % of control.
Regarding `CCN(C(=O)CCl)C(C)(C)C(SSSC(c1ccc(Cl)cc1)C(C)(C)N(CC)C(=O)CCl)c1ccc(Cl)cc1` (configuration not stated), the T/C under setting [7] is 95 % of control and the T/C under setting [8] was 91 % of control.
Take `Cn1c(N)c(N=CC2CC=CCC2)c(=O)n(C)c1=O` (configuration not stated): the T/C (dose: 50.0 mg/kg/injection, schedule: Q01DX001 (ip), vehicle: other) is 103 % of control; the T/C (dose: 100.0 mg/kg/injection, schedule: Q01DX001 (ip), vehicle: other) was 97 % of control; the T/C (dose: 200.0 mg/kg/injection, schedule: Q01DX001 (ip), vehicle: other) was 92 % of control; the T/C (dose: 400.0 mg/kg/injection, schedule: Q01DX001 (ip), vehicle: other) is 97 % of control.
